Experimental data reported in PubChem BioAssay (NCI).
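Values below derive from 48-hour exposures of cells grown in 96-well plates, with endpoints linearly interpolated between the two concentrations bracketing the appropriate inhibition level. The concentration for 50% growth inhibition is given as GI50. TGI denotes the concentration required for complete inhibition of growth.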

Experiments:
Assay in all cases: NCI anticancer screen, dose series, 48 h
RXF 393 renal = test system: RXF 393 renal
OVCAR-8 ovarian = test system: OVCAR-8 ovarian
MOLT-4 leukemia = test system: MOLT-4 leukemia
LOX IMVI melanoma = test system: LOX IMVI melanoma
MDA-MB-468 breast = test system: MDA-MB-468 breast
MDA-MB-435 = test system: MDA-MB-435
SK-MEL-28 melanoma = test system: SK-MEL-28 melanoma
UO-31 renal = test system: UO-31 renal
M14 melanoma = test system: M14 melanoma
EKVX NSCLC = test system: EKVX NSCLC
KM12 colon = test system: KM12 colon
ACHN renal = test system: ACHN renal
HS 578T breast = test system: HS 578T breast
SW-620 colon = test system: SW-620 colon
CCRF-CEM leukemia = test system: CCRF-CEM leukemia
UACC-62 melanoma = test system: UACC-62 melanoma
HT29 colon = test system: HT29 colon
SR leukemia = test system: SR leukemia
786-0 renal = test system: 786-0 renal
HCT-116 colon = test system: HCT-116 colon
T-47D breast = test system: T-47D breast
TK-10 renal = test system: TK-10 renal
HL-60(TB) leukemia = test system: HL-60(TB) leukemia
SF-295 CNS = test system: SF-295 CNS
NCI-H460 lung = test system: NCI-H460 lung
SF-268 CNS = test system: SF-268 CNS
IGROV1 ovarian = test system: IGROV1 ovarian
OVCAR-5 ovarian = test system: OVCAR-5 ovarian
SK-OV-3 ovarian = test system: SK-OV-3 ovarian
PC-3 prostate = test system: PC-3 prostate
HCT-15 colon = test system: HCT-15 colon
COLO 205 colon = test system: COLO 205 colon
SK-MEL-2 melanoma = test system: SK-MEL-2 melanoma
OVCAR-3 ovarian = test system: OVCAR-3 ovarian
SNB-75 CNS = test system: SNB-75 CNS
K-562 leukemia = test system: K-562 leukemia
A498 renal = test system: A498 renal
DU-145 prostate = test system: DU-145 prostate
HOP-92 NSCLC = test system: HOP-92 NSCLC
MCF7 breast = test system: MCF7 breast
RPMI-8226 leukemia = test system: RPMI-8226 leukemia
NCI/ADR-RES ovarian = test system: NCI/ADR-RES ovarian
OVCAR-4 ovarian = test system: OVCAR-4 ovarian
CAKI-1 renal = test system: CAKI-1 renal
HCC-2998 colon = test system: HCC-2998 colon
UACC-257 melanoma = test system: UACC-257 melanoma
NCI-H522 lung = test system: NCI-H522 lung
NCI-H23 lung = test system: NCI-H23 lung
HOP-62 NSCLC = test system: HOP-62 NSCLC
MDA-MB-231 breast = test system: MDA-MB-231 breast
SF-539 CNS = test system: SF-539 CNS
SNB-19 CNS = test system: SNB-19 CNS
MALME-3M melanoma = test system: MALME-3M melanoma
NCI-H226 lung = test system: NCI-H226 lung
SN12C renal = test system: SN12C renal
BT-549 breast = test system: BT-549 breast

COc1cc2cc(C(=O)N3C[C@@H](CCl)c4c3cc(OC(=O)N(C)CCSSCCN3CCOCC3)c3ccccc43)[nH]c2c(OC)c1OC
GI50 (RXF 393 renal): 28 nM
TGI (RXF 393 renal): 95.1 nM
GI50 (OVCAR-8 ovarian): 125 nM
TGI (OVCAR-8 ovarian): 1520 nM
GI50 (MOLT-4 leukemia): 51.9 nM
TGI (MOLT-4 leukemia): > 25000 nM
GI50 (LOX IMVI melanoma): 41.7 nM
TGI (LOX IMVI melanoma): 334 nM
GI50 (MDA-MB-468 breast): 133 nM
TGI (MDA-MB-468 breast): 505 nM
GI50 (MDA-MB-435): 141 nM
TGI (MDA-MB-435): 361 nM
GI50 (SK-MEL-28 melanoma): 128 nM
TGI (SK-MEL-28 melanoma): 293 nM
GI50 (UO-31 renal): 69.2 nM
TGI (UO-31 renal): 452 nM
GI50 (M14 melanoma): 69.9 nM
TGI (M14 melanoma): 318 nM
GI50 (EKVX NSCLC): 178 nM
TGI (EKVX NSCLC): 844 nM
GI50 (KM12 colon): 286 nM
TGI (KM12 colon): > 8850 nM
GI50 (ACHN renal): 19.3 nM
TGI (ACHN renal): 554 nM
GI50 (HS 578T breast): 627 nM
TGI (HS 578T breast): 1970 nM
GI50 (SW-620 colon): 865 nM
TGI (SW-620 colon): > 25000 nM
GI50 (CCRF-CEM leukemia): 281 nM
TGI (CCRF-CEM leukemia): > 25000 nM
GI50 (UACC-62 melanoma): 130 nM
TGI (UACC-62 melanoma): 482 nM
GI50 (HT29 colon): 496 nM
TGI (HT29 colon): > 8760 nM
GI50 (SR leukemia): 19.7 nM
TGI (SR leukemia): > 25000 nM
GI50 (786-0 renal): 196 nM
TGI (786-0 renal): 1050 nM
GI50 (HCT-116 colon): 612 nM
TGI (HCT-116 colon): > 25000 nM
GI50 (T-47D breast): 1010 nM
TGI (T-47D breast): 5720 nM
GI50 (TK-10 renal): 819 nM
TGI (TK-10 renal): 3120 nM
GI50 (HL-60(TB) leukemia): 251 nM
TGI (HL-60(TB) leukemia): 4950 nM
GI50 (SF-295 CNS): 87.2 nM
TGI (SF-295 CNS): 1470 nM
GI50 (NCI-H460 lung): 26.3 nM
TGI (NCI-H460 lung): > 9660 nM
GI50 (SF-268 CNS): 45.4 nM
TGI (SF-268 CNS): > 25000 nM
GI50 (IGROV1 ovarian): 358 nM
TGI (IGROV1 ovarian): 1460 nM
GI50 (OVCAR-5 ovarian): 228 nM
TGI (OVCAR-5 ovarian): 1060 nM
GI50 (SK-OV-3 ovarian): 107 nM
TGI (SK-OV-3 ovarian): 925 nM
GI50 (PC-3 prostate): 214 nM
TGI (PC-3 prostate): > 25000 nM
GI50 (HCT-15 colon): 335 nM
TGI (HCT-15 colon): 2990 nM
GI50 (COLO 205 colon): 1150 nM
TGI (COLO 205 colon): 2680 nM
GI50 (SK-MEL-2 melanoma): 210 nM
TGI (SK-MEL-2 melanoma): 463 nM
GI50 (OVCAR-3 ovarian): 575 nM
TGI (OVCAR-3 ovarian): 1630 nM
GI50 (SNB-75 CNS): 348 nM
TGI (SNB-75 CNS): 921 nM
GI50 (K-562 leukemia): 608 nM
TGI (K-562 leukemia): > 25000 nM
GI50 (A498 renal): 272 nM
TGI (A498 renal): 1330 nM
GI50 (DU-145 prostate): 34.1 nM
TGI (DU-145 prostate): > 25000 nM
GI50 (HOP-92 NSCLC): 1130 nM
TGI (HOP-92 NSCLC): > 18600 nM
GI50 (MCF7 breast): 45.7 nM
TGI (MCF7 breast): 2240 nM
GI50 (RPMI-8226 leukemia): 1000 nM
TGI (RPMI-8226 leukemia): > 25000 nM
GI50 (NCI/ADR-RES ovarian): 362 nM
TGI (NCI/ADR-RES ovarian): 1290 nM
GI50 (OVCAR-4 ovarian): 621 nM
TGI (OVCAR-4 ovarian): 1830 nM
GI50 (CAKI-1 renal): 137 nM
TGI (CAKI-1 renal): 5730 nM
GI50 (HCC-2998 colon): 154 nM
TGI (HCC-2998 colon): 575 nM
GI50 (UACC-257 melanoma): 642 nM
TGI (UACC-257 melanoma): 4320 nM
GI50 (NCI-H522 lung): 1330 nM
TGI (NCI-H522 lung): 7370 nM
GI50 (NCI-H23 lung): 33.3 nM
TGI (NCI-H23 lung): 164 nM
GI50 (HOP-62 NSCLC): 29.4 nM
TGI (HOP-62 NSCLC): 511 nM
GI50 (MDA-MB-231 breast): 270 nM
TGI (MDA-MB-231 breast): 1180 nM
GI50 (SF-539 CNS): 25.7 nM
TGI (SF-539 CNS): 116 nM
GI50 (SNB-19 CNS): 95 nM
TGI (SNB-19 CNS): 2550 nM
GI50 (MALME-3M melanoma): 229 nM
TGI (MALME-3M melanoma): 673 nM
GI50 (NCI-H226 lung): 29.5 nM
TGI (NCI-H226 lung): 122 nM
GI50 (SN12C renal): 69 nM
TGI (SN12C renal): 1920 nM
GI50 (BT-549 breast): 66.5 nM
TGI (BT-549 breast): 330 nM
